Measured values published in PMC5011342, “A high throughput drug screening assay to identify compounds that promote oligodendrocyte differentiation using acutely dissociated and purified oligodendrocyte precursor cells” (BMC Research Notes, 2016).
Like-named read-outs stand apart in the source and are kept apart here.

How the values were obtained:
[1] = system: acutely dissociated and purified rat OPCs; experiment: Acute OL differentiation assay (MBP expression/cell, immunofluorescent image quantification); type: cell-based; details: Rattus norvegicus, sheet "All OLga data"
Outline: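 Oligodendrocyte precursor cells were enriched from P6-P7 Sprague–Dawley rat brains by immunopanning (RAN-2 and GalC depletion, O4 selection), plated at 5000 cells/well in serum-free, mitogen-free differentiation media on PDL/laminin 96-well view plates, centrifuged at 200×g, and pre-incubated 1–2 h before test compounds were added in quadruplicate. On DIV4, cells were fixed, stained for MBP and DAPI, imaged automatically, and MBP expression per cell was quantified.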

expanded OPCs = experiment: cells; details: for viability at 0.1 µM / viability at 1 µM / viability at 10 µM: Rattus norvegicus, 72 h; for 0.1 µM (% DMSO) / 1 µM (% DMSO) / 10 µM (% DMSO): alamarBlue viability of expanded OPCs, relative to DMSO control; for 0.1 µM (% DMSO): compound at 0.1 µM; for 1 µM (% DMSO): compound at 1 µM; for 10 µM (% DMSO): compound at 10 µM
Outline: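 Expanded OPCs seeded at 10,000 cells/well in differentiation media, then exposed to NCC library compounds at 10, 1 and 0.1 µM (quadruplicate, 0.1% DMSO) for three days. Viability read as alamarBlue fluorescence (560/590 nm) after 4 h at 37 °C; tunicamycin 5 ng/ml served as toxicity control.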

[2] = test compound at 2 uM, NCC library screen, relative to quetiapine, read-out: 2 uM (% Quet)
[3] = test compound at 10 uM, NCC library screen, relative to quetiapine, read-out: 10 uM (% Quet)
[4] = read-out: 0.1 µM (% DMSO), alamarBlue viability, NCC library compound at 0.1 µM, sheet "All Tox data"
[5] = read-out: 1 µM (% DMSO), alamarBlue viability, NCC library compound at 1 µM, sheet "All Tox data"
[6] = read-out: 10 µM (% DMSO), alamarBlue viability, NCC library compound at 10 µM, sheet "All Tox data"
[7] = 2 uM test compound, relative to quetiapine, read-out: OL differentiation, 2 uM (% Quet)
[8] = 10 uM test compound, relative to quetiapine, read-out: OL differentiation, 10 uM (% Quet)
[9] = read-out: 0.1 µM (% DMSO), alamarBlue viability of expanded OPCs, compound at 0.1 µM, sheet All Tox data
[10] = read-out: 1 µM (% DMSO), alamarBlue viability of expanded OPCs, compound at 1 µM, sheet All Tox data
[11] = read-out: 10 µM (% DMSO), alamarBlue viability of expanded OPCs, compound at 10 µM, sheet All Tox data
[12] = 0.4 uM test compound, relative to quetiapine, read-out: OL differentiation, 0.4 uM (% Quet)

| SMILES | activation at 2 µM [1, 2] [%] | activation at 10 µM [1, 3] [%] | activation at 2 µM [1, 7] [%] | activation at 10 µM [1, 8] [%] | viability at 0.1 µM (expanded OPCs; [9]) [%] | viability at 1 µM (expanded OPCs; [10]) [%] | viability at 10 µM (expanded OPCs; [11]) [%] | other results |
| --- | --- | --- | --- | --- | --- | --- | --- | --- |
| C#C[C@]1(O)CC[C@H]2[C@@H]3CCC4=CC(=O)CC[C@@H]4[C@H]3CC[C@@]21C [Norethindrone] | -0.9 | -32 | – | – | – | – | – | viability at 0.1 µM (expanded OPCs; [4]): 95%; viability at 1 µM (expanded OPCs; [5]): 87.2%; viability at 10 µM (expanded OPCs; [6]): 80.6% |
| C#C[C@]1(OC(C)=O)CC[C@H]2[C@@H]3CCC4=CC(=O)CC[C@@H]4[C@H]3CC[C@@]21C [Norethisterone acetate] | -15 | -14.3 | – | – | – | – | – | viability at 0.1 µM (expanded OPCs; [4]): 103%; viability at 1 µM (expanded OPCs; [5]): 93.1%; viability at 10 µM (expanded OPCs; [6]): 101% |
| CCn1cc(C(=O)O)c(=O)c2cc(F)c(N3CCNCC3)cc21 [Norfloxacin] | -20.2 | -13 | – | – | – | – | – | 0.1 µM (% DMSO) (expanded OPCs): 111.0 % DMSO; 1 µM (% DMSO) (expanded OPCs): 105.5 % DMSO; 10 µM (% DMSO) (expanded OPCs): 99.0 % DMSO |
| c1cncc([C@@H]2CCCN2)c1 [Nornicotine] | – | – | 18.1 | 10.4 | 86 | 101 | 98.4 | – |
| CNCCC=C1c2ccccc2CCc2ccccc21 [Nortriptyline] | – | – | – | – | – | – | – | activation at 0.08 µM ([1]; test compound at 0.08 uM, NCC library screen, relative to quetiapine, read-out: 0.08 uM (% Quet)): 2.3%; activation at 0.4 µM ([1]; test compound at 0.4 uM, NCC library screen, relative to quetiapine, read-out: 0.4 uM (% Quet)): -28.1%; 0.1 µM (% DMSO) (expanded OPCs): 66.6 % DMSO; 1 µM (% DMSO) (expanded OPCs): 28.2 % DMSO; 10 µM (% DMSO) (expanded OPCs): 13.8 % DMSO |
| CC1COc2c(N3CCN(C)CC3)c(F)cc3c(=O)c(C(=O)O)cn1c23 (centres unmarked) [Ofloxacin] | 3.8 | -3.8 | -4.3 | 4.9 | 95.3 | 91.5 | 99.5 | 0.1 µM (% DMSO) (expanded OPCs): 93.4 % DMSO; 1 µM (% DMSO) (expanded OPCs): 91.6 % DMSO; 10 µM (% DMSO) (expanded OPCs): 89.4 % DMSO |
| Cc1cc2c(s1)Nc1ccccc1N=C2N1CCN(C)CC1 [Olanzapine] | – | – | -9.8 | – | 90.8 | 60.6 | 30.2 | activation at 0.4 µM [1, 12]: -3% |
| CC[C@@H]1C=CC=CC[C@H](C)[C@@H](O)[C@@H](C)C(=O)[C@H](C)[C@@H](O)[C@H](C)C(=O)[C@H](C)[C@@H](O)[C@H](C)C=CC(=O)O[C@H]2[C@@H](C)[C@@H](CC1)O[C@@]1(CC[C@@H](C)[C@@H](C[C@H](C)O)O1)[C@@H]2C [Oligomycin C] | – | – | -33.8 | -128 | 86.9 | 87 | 68.4 | – |
| CCCc1nc(C(C)(C)O)c(C(=O)O)n1Cc1ccc(-c2ccccc2-c2nnn[nH]2)cc1 [Olmesartan] | – | – | -15.6 | -11.9 | 91.4 | 87.4 | 93.9 | – |
| CN(C)CC/C=C1/c2ccccc2COc2ccc(CC(=O)O)cc21 [Olopatadine] | -29.3 | -29 | – | – | – | – | – | viability at 0.1 µM (expanded OPCs; [4]): 88.7%; viability at 1 µM (expanded OPCs; [5]): 89.3%; viability at 10 µM (expanded OPCs; [6]): 77.6% |
| COc1ccc2[nH]c([S+]([O-])Cc3ncc(C)c(OC)c3C)nc2c1 (centres unmarked) [Omeprazole] | -5.2 | 5.2 | – | – | – | – | – | viability at 0.1 µM (expanded OPCs; [4]): 84.3%; viability at 1 µM (expanded OPCs; [5]): 88.4%; viability at 10 µM (expanded OPCs; [6]): 85.8% |
| Cc1nccn1CC1CCc2c(c3ccccc3n2C)C1=O (centres unmarked) [Ondansetron] | – | – | 4.2 | -7.7 | 92.9 | 92.2 | 102 | activation at 2 µM ([1]; test compound at 2 uM, MBP expression relative to quetiapine, NCC library screen, read-out: 2 uM (% Quet)): 3%; activation at 10 µM ([1]; test compound at 10 uM, MBP expression relative to quetiapine, NCC library screen, read-out: 10 uM (% Quet)): 3.5%; 0.1 µM (% DMSO) (expanded OPCs): 95.7 % DMSO; 1 µM (% DMSO) (expanded OPCs): 92.7 % DMSO; 10 µM (% DMSO) (expanded OPCs): 90.9 % DMSO |
| CCCCCCCCCCC[C@@H](C[C@@H]1OC(=O)[C@H]1CCCCCC)OC(=O)[C@H](CC(C)C)NC=O [Orlistat] | – | – | -43.8 | – | 80.3 | 80.1 | 12.5 | activation at 0.4 µM [1, 12]: 4.3% |
| COc1cc(C)c(Cc2cnc(N)nc2N)cc1OC [Ormetoprim] | – | – | -23.4 | -8.2 | 101 | 91 | 95.4 | – |
